Literature values, collected in US20170304500A1, “MICROFABRICATED TISSUE SCAFFOLDS AND METHODS OF MAKING AND USING THE SAME” (TARA BIOSYSTEMS INC., priority 2014, published 2017).

Tested on: artery and vein
Details: released from hydrogel; reported in PNAS; cited from earlier work

Substance: thymosin Beta-4: peptide controllably released from a hydrogel (SDKPDMAEIEKFDKSKLKKTETQEKNPLPSKETIEQEKQAGES; Thymosin beta-4 released from hydrogel; UniProt P62328 2-44, looked up)
- angiogenesis: stimulated angiogenesis
